tested on: not given; assay: not given; conditions: from C=CCCCCC[C@H](NC(=O)OC(C)(C)C)C(=O)N1C[C@@H](O)C[C@H]1C(=O)N[C@]1(C(=O)OC)CC1C=C; rcm bond; Hoveyda's catalyst; CH2Cl2; 9.85 mM; 40.0 °C; 28.0 h

| Structure (SMILES) | ring closure, yield of all isomers [%] |
| --- | --- |
| COC(=O)[C@@]12CC1C=CCCCCC[C@H](NC(=O)OC(C)(C)C)C(=O)N1C[C@@H](O)C[C@H]1C(=O)N2 (stereo partly shown) | 89 |

same assay, conditions: from COC(=O)[C@@]1(NC(=O)[C@@H]2C[C@@H](Oc3cc(-c4ccccc4)nc4cc(OC)ccc34)CN2C(=O)[C@H](CCNC(=O)OCc2ccccc2)NC(=O)OC(C)(C)C)C[C@H]1CCCC=O; amine bond; H2, Pd(OH)2, AcOH; ethanol; 44.0 mM; 25.0 °C; 40.0 h; 2 steps

| Structure (SMILES) | ring closure, yield of all isomers [%] |
| --- | --- |
| COC(=O)[C@@]12C[C@H]1CCCCNCC[C@H](NC(=O)OC(C)(C)C)C(=O)N1C[C@H](Oc3cc(-c4ccccc4)nc4cc(OC)ccc34)C[C@H]1C(=O)N2 | 30 |

biological target: HCV NS3 protease type 1b (Hepatitis C virus genotype 1b, UniProt P26663); assay: Recombinant HCV NS3 protease radiometric assay; assay type: biochemical; conditions: not given
Experimental: The substrate used for the HCV NS3 protease radiometric assay, DDIVPC-SMSYTW (SEQ. ID NO.: 2), is cleaved between the cysteine and the serine residues by the enzyme. The sequence DDIVPC-SMSYTW (SEQ. ID NO.: 2) corresponds to the NS5A/NS5B natural cleavage site in which the cysteine residue in P2 has been substituted for a proline. The peptide substrate DDIVPC-SMSYTW (SEQ. ID NO.: 2) and the tracer biotin-DDIVPC-SMS[^125I-Y]TW (SEQ. ID NO.: 3) were incubated with the recombinant NS3 protease in the absence or in the presence of inhibitors. The separation of substrate from products was performed by adding avidin-coated agarose beads to the assay mixture followed by filtration. The amount of SMS[^125I-Y]TW (SEQ. ID NO.: 4) product found in the filtrate (with or without inhibitor) allowed for the calculation of the percentage of substrate conversion and of the percentage of inhibition.
Assay buffer: 50 mM Tris-HCl, pH 7.5, 30% (w/v) glycerol, 2% (w/ v) CHAPS, 1 mg/mL BSA, 1 mM TCEP (TCEP added just prior to use from a 1 M stock solution in water).
Substrate: DDIVPC-SMSYTW (SEQ. ID NO.: 2), 25 μM final concentration (from a 2 mM stock solution in DMSO stored at −20° C. to avoid oxidation).
Tracer: reduced mono-iodinated substrate(biotin-DDIVPC-SMS[^125I-Y]TW (SEQ. ID NO.: 3)) (≈1 nM final concentration).
HCV NS3 protease type 1b, 25 nM final concentration (from a stock solution in 50 mM sodium phosphate, pH 7.5, 10% glycerol, 300 mM NaCl, 5 mM DTT, 0.01% NP-40).
The assay was performed in a 96-well polypropylene plate. Each well contained:
20 μL substrate/tracer in assay buffer;
10 μL±inhibitor in 20% DMSO/assay buffer;
Blank (no inhibitor and no enzyme) and control (no inhibitor) were also prepared on the same assay plate.
The enzymatic reaction was initiated by the addition of the enzyme solution and the assay mixture was incubated for 60 min at 23° C. under gentle agitation. Twenty (20) μL of 0.025 N NaOH were added to quench the enzymatic reaction.
Twenty (20) μL of avidin-coated agarose beads (purchased from Pierce®) were added in a Millipore® MADP N65 filtration plate. The quenched assay mixture was transferred to the filtration plate, and incubated for 60 min at 23° C. under gentle agitation.
The plates were filtered using a Millipore® MultiScreen Vacuum Manifold Filtration apparatus, and 40 μL of the filtrate was transferred to an opaque 96-well plate containing 60 μL of scintillation fluid per well.
The filtrates were counted on a Packard® TopCount instrument using a ^125I-liquid protocol for 1 minute. The %inhibition was calculated with the following equation:
100−[(countsinh−countsblank)/(countsctl−countsblank)×100] […]

HCV NS3 protease type 1b, sequence (P26663 1027-1208): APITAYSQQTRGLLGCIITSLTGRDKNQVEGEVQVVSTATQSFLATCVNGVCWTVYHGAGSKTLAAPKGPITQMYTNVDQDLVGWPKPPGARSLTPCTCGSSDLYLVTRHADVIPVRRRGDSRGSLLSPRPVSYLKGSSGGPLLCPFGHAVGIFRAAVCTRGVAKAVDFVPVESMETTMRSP

| Structure (SMILES) | IC50 [nM] |
| --- | --- |
| COc1ccc2c(O[C@@H]3C[C@H]4C(=O)N[C@@]5(C(=O)O)C[C@@H]5/C=C\CCCCC[C@H](NC(=O)OC(C)(C)C)C(=O)N4C3)cc(-c3ccccc3)nc2c1 [Compound 210] | > 1000 |

same assay, conditions: asterisk (*) = radiometric assay of Example 49; read-out: enzyme activity (IC50 grade), asterisk

| Structure (SMILES) | IC50 [nM] |
| --- | --- |
| COc1ccc2c(O[C@@H]3C[C@H]4C(=O)N[C@]5(C(=O)O)C[C@@H]5CCCCC[C@H](NC(=O)OC(C)(C)C)C(=O)N4C3)cc(-c3ccccc3)nc2c1 [Compound 306] | > 1000 |
| COc1ccc2c(O[C@@H]3C[C@H]4C(=O)N[C@]5(C(=O)O)C[C@H]5CC/C=C\CS[C@@H](C)[C@H](NC(=O)OC(C)(C)C)C(=O)N4C3)cc(-c3ccccc3)nc2c1 [Compound 411] | > 1000 |
| COc1ccc2c(O[C@@H]3C[C@H]4C(=O)N[C@]5(C(=O)O)C[C@H]5CCN(C)CCCC[C@H](NC(=O)OC(C)(C)C)C(=O)N4C3)cc(-c3ccccc3)nc2c1 [Cpd 504] | > 1000 |

biological target: T1, His-NS3-NS4AFL (full-length NS3-NS4A protein complex) (Hepatitis C virus genotype 1b, UniProt P26663); assay: Full-length NS3-NS4A heterodimer protein fluorogenic assay; assay type: biochemical, HCV genotype 1b; conditions: fluorogenic assay of Example 48; no asterisk; read-out: enzyme activity (IC50 grade)
T1 construct: made in house; host or cells: Sf21 insect cells, recombinant baculovirus (Bac-to-Bac, pFastBac HTa)
Source text: The NS2-NS5B-3′non coding region was cloned by RT-PCR into the pCR®3 vector (Invitrogen) using RNA extracted from the serum of an HCV genotype 1b infected individual (provided by Dr. Bernard Willems, Hôpital St-Luc, Montréal, Québec, Canada). The NS3-NS4A region (NS3-NS4AFL) was then subcloned by PCR into the pFastBac™ HTa baculovirus expression vector (Gibco/BRL). The vector sequence includes a region encoding a 28-residue N-terminal sequence which contains a hexahistidine tag. The Bac-to-Bac™ baculovirus expression system (Gibco/BRL) was used to produce the recombinant baculovirus. His-NS3-NS4AFL was expressed by infecting 10^6 Sf21 cells/mL with the recombinant baculovirus at a multiplicity of infection of 0.1-0.2 at 27°. Authentic auto-proteolysis occurs during expression to produce a non covalent and stable NS3-NS4A protein complex (referred to as full-length “FL”). The infected culture was harvested 48 to 64 h later by centrifugation at 4°. The cell pellet was homogenized in 50 mM NaPO4, pH 7.5, 40% glycerol (w/v), 2 mM β-mercaptoethanol, in presence of a cocktail of protease inhibitors. His-NS3-NS4AFL was then extracted from the cell lysate with 1.5% NP-40, 0.5% Triton X-100, 0.5M NaCl, and a DNase treatment. After ultracentrifugation, the soluble extract was diluted 4-fold and bound on a Pharmacia Hi-Trap Ni-chelating column. The His-NS3-NS4AFL was eluted in a >90% pure form (as judged by SDS-PAGE), using a 50 to 400 mM imidazole gradient. The His-NS3-NS4AFL was stored at −80° in 50 mM sodium phosphate, pH 7.5, 10% (w/v) glycerol, 0.5 M NaCl, 0.25 M imidazole, 0.1% NP-40. It was thawed on ice and diluted just prior to use.
The protease activity of His-NS3-NS4AFL was assayed in 50 mM Tris-HCl, pH 8.0, 0.25 M sodium citrate, 0.01% (w/v) n-dodecyl-β-D-maltoside, 1 mM TCEP. Five (5) μM of the internally quenched substrate anthranilyl-DDIVPAbu[C(O)—O]-AMY(3-NO2)TW-OH (SEQ. ID NO.: 1) in presence of various concentrations of inhibitor were incubated with 1.5 nM of His-NS3-NS4AFL for 45 min at 23°. […] The reaction was terminated with the addition of 1M MES, pH 5.8. Fluorescence of the N-terminal product was monitored on a Perkin-Elmer LS-50B fluorometer equipped with a 96-well plate reader (excitation wavelength: 325 nm, emission wavelength: 423 nm).
The % inhibition was calculated with the following equation:
100−[(fluoinh−fluoblank)/(fluoctl−fluoblank)×100]
A non-linear curve fit with the Hill model was applied to the inhibition-concentration data, and the 50% effective concentration (IC50) was calculated by the use of SAS software (Statistical Software System; SAS Institute, Inc. Cary, N.C.).

T1 sequence (P26663 1658-1711): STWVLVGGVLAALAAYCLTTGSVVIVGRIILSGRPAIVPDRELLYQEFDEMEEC
T1 sequence (P26663 1027-1657): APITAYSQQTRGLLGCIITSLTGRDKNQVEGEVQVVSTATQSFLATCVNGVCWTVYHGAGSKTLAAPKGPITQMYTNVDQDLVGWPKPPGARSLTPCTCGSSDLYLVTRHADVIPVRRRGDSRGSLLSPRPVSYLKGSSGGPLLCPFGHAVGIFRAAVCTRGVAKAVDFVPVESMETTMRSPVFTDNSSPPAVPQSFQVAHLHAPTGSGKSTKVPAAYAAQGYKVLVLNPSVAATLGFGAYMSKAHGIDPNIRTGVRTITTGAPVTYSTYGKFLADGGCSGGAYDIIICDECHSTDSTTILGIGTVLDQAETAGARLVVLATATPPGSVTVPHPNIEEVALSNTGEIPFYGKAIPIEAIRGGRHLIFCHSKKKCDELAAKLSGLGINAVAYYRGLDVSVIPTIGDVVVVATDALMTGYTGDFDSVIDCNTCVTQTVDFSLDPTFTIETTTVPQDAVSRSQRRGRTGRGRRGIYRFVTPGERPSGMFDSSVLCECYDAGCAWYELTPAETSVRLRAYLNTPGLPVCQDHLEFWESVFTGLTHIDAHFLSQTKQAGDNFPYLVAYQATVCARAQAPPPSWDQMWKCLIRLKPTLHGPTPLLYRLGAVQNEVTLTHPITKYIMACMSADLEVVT

| Structure (SMILES) | IC50 [nM] |
| --- | --- |
| COc1ccc2c(OC3CC4C(=O)NC5(C(=O)O)CC5CCC=CCCCC(NC(=O)OC(C)(C)C)C(=O)N4C3)cc(-c3ccccc3)nc2c1 (stereo not shown) [Compound 402] | 100 to 1000 |
| COc1ccc2c(OC3CC4C(=O)NC5(C(=O)O)CC5CCC=CCOCC(NC(=O)OC(C)(C)C)C(=O)N4C3)cc(-c3ccccc3)nc2c1 (stereo not shown) [Compound 403] | < 100 |
| COc1ccc2c(O[C@@H]3C[C@H]4C(=O)N[C@]5(C(=O)O)CC5CC/C=C/CO[C@H](C)[C@H](NC(=O)OC(C)(C)C)C(=O)N4C3)cc(-c3ccccc3)nc2c1 (stereo partly shown) [Compound 404] | 100 to 1000 |
| COc1ccc2c(O[C@@H]3C[C@H]4C(=O)N[C@]5(C(=O)O)CC5CCCCCO[C@H](C)[C@H](NC(=O)OC(C)(C)C)C(=O)N4C3)cc(-c3ccccc3)nc2c1 (stereo partly shown) [Compound 407] | 100 to 1000 |
| COc1ccc2c(O[C@@H]3C[C@H]4C(=O)N[C@]5(C(=O)O)C[C@H]5CC/C=C/CS[C@@H](C)[C@H](NC(=O)OC(C)(C)C)C(=O)N4C3)cc(-c3ccccc3)nc2c1 [Compound 410] | < 100 |
| COc1ccc2c(OC3CC4C(=O)NC5(C(=O)O)CC5CCC=CCSC(C)(C)C(NC(=O)OC(C)(C)C)C(=O)N4C3)cc(-c3ccccc3)nc2c1 (stereo not shown) [Compound 412] | > 1000 |
| COc1ccc2c(O[C@@H]3C[C@H]4C(=O)N[C@]5(C(=O)O)CC5CCCCN(C(C)=O)CC[C@H](NC(=O)OC(C)(C)C)C(=O)N4C3)cc(-c3ccccc3)nc2c1 (stereo partly shown) [Compound 508] | < 100 |
| CC(=O)Nc1nc(-c2cc(O[C@@H]3C[C@H]4C(=O)N[C@]5(C(=O)O)C[C@H]5/C=C\CCCCC[C@H](NC(=O)OC(C)(C)C)C(=O)N4C3)c3ccc(N(C)C)cc3n2)cs1 [Compound 601] | < 100 |
| CC(C)(C)OC(=O)N[C@H]1CCCCC/C=C\[C@@H]2C[C@@]2(C(=O)O)NC(=O)[C@@H]2C[C@@H](Oc3cc(C(F)(F)F)nc4cc(O)ccc34)CN2C1=O [Compound 602] | < 100 |
| COc1ccc2c(O[C@@H]3C[C@H]4C(=O)N[C@]5(C(=O)O)C[C@H]5/C=C\CCCCC[C@H](NC(=O)OC(C)(C)C)C(=O)N4C3)cc(-c3cnco3)nc2c1 [Compound 603] | < 100 |

From patent US6608027B1, “Macrocyclic peptides active against the hepatitis C virus” (Boehringer Ingelheim (Canada) Ltd, priority 1999, dated 2003)
